Source: patent publication US10202370B2, “Benzimidazole derivatives as selective proteine kinase inhibitors” (AB SCIENCE, priority 2013, dated 2019)

Biological target: c-kit WT (Homo sapiens (Human), UniProt P10721)
Assay: Proliferation assay (CellTiter-Blue) on BaF3 Kit WT cell line
Format: cell-based
Conditions: BaF3 Kit WT cell line (murine Ba/F3 expressing Human Kit WT, with murine SCF), 48 hours
Procedure: Procedures of C-Kit WT Inhibition Assays:
Colorimetric cell proliferation and viability assay (reagent CellTiter-Blue purchased from Promega cat N°G8081) was performed on BaF3 Kit WT cell line.
A total of 2.10^4 cells/50 μl were seeded per well of a 96-wells plate. Treatment was initiated by addition of a 2× drug solution of ½ serial dilutions ranging from 0 to 10 μM. After incubating for 48 hours at 37° C., 10 μl of a ½ dilution of CellTiter-Blue reagent was added to each well and the plates were returned to the incubator for an additional 4 hours. The fluorescence intensity from the CellTiter-Blue reagent is proportional to the number of viable cells and data were recorded (544Ex/590Em) using a POLARstar OMEGA microplate reader (BMG LabteckSarl). A background control without cells was used as a blank. The positive control of the assay corresponds to the cell proliferation obtained in the absence of drug treatment (100% proliferation). Each sample was done in triplicate. The results were expressed as a percentage of the proliferation obtained in absence of treatment. All drugs were prepared as 20 mM stock solutions in DMSO and conserved at −80° C. Drug dilutions were made fresh in medium before each experiment. A DMSO control was included in each experiment.
The cell line expressing Human Kit WT was derived from the murine IL3-dependent Ba/F3 proB lymphoid cells. Ba/F3 Kit WT cells were maintained in RPMI medium containing 10% FCS and supplemented with 250 ng/ml of recombinant murine SCF.

Chain of c-kit WT (P10721 26-976): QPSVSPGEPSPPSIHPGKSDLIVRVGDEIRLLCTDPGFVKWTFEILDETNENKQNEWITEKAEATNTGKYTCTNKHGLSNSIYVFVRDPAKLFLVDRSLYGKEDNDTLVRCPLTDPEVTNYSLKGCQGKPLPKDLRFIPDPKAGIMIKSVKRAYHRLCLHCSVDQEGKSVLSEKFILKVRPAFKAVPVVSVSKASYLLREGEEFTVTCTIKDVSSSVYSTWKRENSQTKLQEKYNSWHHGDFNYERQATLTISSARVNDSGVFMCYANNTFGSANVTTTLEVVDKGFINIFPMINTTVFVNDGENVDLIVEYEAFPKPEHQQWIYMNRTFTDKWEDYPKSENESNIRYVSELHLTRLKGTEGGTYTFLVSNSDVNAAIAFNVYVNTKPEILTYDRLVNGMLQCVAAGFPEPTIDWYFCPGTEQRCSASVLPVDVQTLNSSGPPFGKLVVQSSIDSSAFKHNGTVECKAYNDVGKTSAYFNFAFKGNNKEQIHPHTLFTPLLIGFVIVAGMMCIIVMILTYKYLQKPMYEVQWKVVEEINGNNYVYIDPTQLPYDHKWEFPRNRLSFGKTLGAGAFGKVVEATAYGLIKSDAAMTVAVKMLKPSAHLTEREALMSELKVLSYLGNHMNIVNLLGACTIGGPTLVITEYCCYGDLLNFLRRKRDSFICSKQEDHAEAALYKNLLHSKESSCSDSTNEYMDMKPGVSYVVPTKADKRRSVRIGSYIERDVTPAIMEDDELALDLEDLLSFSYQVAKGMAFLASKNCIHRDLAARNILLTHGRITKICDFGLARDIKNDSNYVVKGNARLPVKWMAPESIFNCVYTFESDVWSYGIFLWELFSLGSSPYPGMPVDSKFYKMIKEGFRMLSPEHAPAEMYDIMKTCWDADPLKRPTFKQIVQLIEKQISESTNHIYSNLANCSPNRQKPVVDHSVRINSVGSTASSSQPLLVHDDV

Compound | IC50
Cc1cc2nc(-c3cccc(Cl)c3)[nH]c2cc1Nc1nc(-c2cncnc2)cs1 [Compound 068, [2-(3-Chloro-phenyl)-6-methyl-1H-benzoimidazol-5-yl]-(4-pyrimidin-5-yl-thiazol-2-yl)-amine] | 1 to 10 µM
Cc1cc2nc(-c3cccc(C(F)(F)F)c3)[nH]c2cc1Nc1nc(-c2ccc(C#N)cc2)cs1 [Compound 070, 4-{2-[6-Methyl-2-(3-trifluoromethyl-phenyl)-3H-benzoimidazol-5-ylamino]-thiazol-4-yl}-benzonitrile] | ≤ 1 µM
Cc1cc2nc(-c3cccc(C(F)F)c3)[nH]c2cc1Nc1nc(-c2ccc(C(N)=O)cc2)cs1 [Compound 071, 4-{2-[2-(3-Difluoromethyl-phenyl)-6-methyl-3H-benzoimidazol-5-ylamino]-thiazol-4-yl}-benzamide] | ≤ 1 µM
Cc1cc2nc(-c3cccc(OC(F)(F)F)c3)[nH]c2cc1Nc1nc(-c2ccc(C(N)=O)cc2)cs1 [Compound 073, 4-{2-[6-Methyl-2-(3-trifluoromethoxy-phenyl)-3H-benzoimidazol-5-ylamino]-thiazol-4-yl}-benzamide] | ≤ 1 µM
Cc1cccc(-c2nc3cc(C)c(Nc4nc(-c5ccc(C#N)cc5)cs4)cc3[nH]2)c1 [Compound 074, 4-[2-(6-Methyl-2-m-tolyl-3H-benzoimidazol-5-ylamino)-thiazol-4-yl]-benzonitrile] | ≤ 1 µM
Cc1cc2nc(-c3cccc(OC(F)(F)F)c3)[nH]c2cc1Nc1nc(-c2ccc(C#N)cc2)cs1 [Compound 075, 4-{2-[6-Methyl-2-(3-trifluoromethoxy-phenyl)-3H-benzoimidazol-5-ylamino]-thiazol-4-yl}-benzonitrile] | ≤ 1 µM
Cc1cc2nc(-c3ccc(C(F)(F)F)cc3)[nH]c2cc1Nc1nc(-c2ccc(C#N)cc2)cs1 [Compound 076, 4-{2-[6-Methyl-2-(4-trifluoromethyl-phenyl)-3H-benzoimidazol-5-ylamino]-thiazol-4-yl}-benzonitrile] | 1 to 10 µM
Cc1cc2nc(-c3cncn3C)[nH]c2cc1Nc1nc(-c2cccnc2)cs1 [Compound 077, [6-Methyl-2-(3-methyl-3H-imidazol-4-yl)-3H-benzoimidazol-5-yl]-(4-pyridin-3-yl-thiazol-2-yl)-amine] | 1 to 10 µM
Cc1ccc(-c2nc3cc(C)c(Nc4nc(-c5cccnc5)cs4)cc3[nH]2)s1 [Compound 078, [6-Methyl-2-(5-methyl-thiophen-2-yl)-3H-benzoimidazol-5-yl]-(4-pyridin-3-yl-thiazol-2-yl)-amine] | ≤ 1 µM
Cc1cc2c(cc1Nc1nc(-c3ccncc3)cs1)nc(-c1cccc(C(F)(F)F)c1)n2C [Compound 082, [1,6-Dimethyl-2-(3-trifluoromethyl-phenyl)-1H-benzoimidazol-5-yl]-(4-pyridin-4-yl-thiazol-2-yl)-amine] | ≤ 1 µM
Cc1cc2c(cc1Nc1nc(-c3ccncc3)cs1)nc(-c1cccc(OC(F)(F)F)c1)n2C [Compound 083, [1,6-Dimethyl-2-(3-trifluoromethoxy-phenyl)-1H-benzoimidazol-5-yl]-(4-pyridin-4-yl-thiazol-2-yl)-amine] | ≤ 1 µM
Cc1cc2c(cc1Nc1nc(-c3cccnc3)cs1)nc(-c1cccc(C(F)F)c1)n2C [Compound 084, [2-(3-Difluoromethyl-phenyl)-1,6-dimethyl-1H-benzoimidazol-5-yl]-(4-pyridin-3-yl-thiazol-2-yl)-amine] | ≤ 1 µM
Cc1cc2c(cc1Nc1nc(-c3cccnc3)cs1)nc(-c1cccc(C(F)(F)F)c1)n2C [Compound 085, [1,6-Dimethyl-2-(3-trifluoromethyl-phenyl)-1H-benzoimidazol-5-yl]-(4-pyridin-3-yl-thiazol-2-yl)-amine] | ≤ 1 µM
FC(F)(F)c1cccc(-c2nc3cc(Nc4nc(-c5cccnc5)cs4)ccc3[nH]2)c1 [Compound 088, (4-Pyridin-3-yl-thiazol-2-yl)-[2-(3-trifluoromethyl-phenyl)-1H-benzoimidazol-5-yl]-amine] | 1 to 10 µM
FC(F)(F)Oc1cccc(-c2nc3cc(Nc4nc(-c5cccnc5)cs4)ccc3[nH]2)c1 [Compound 089, (4-Pyridin-3-yl-thiazol-2-yl)-[2-(3-trifluoromethoxy-phenyl)-1H-benzoimidazol-5-yl]-amine] | ≤ 1 µM
Cn1c(-c2cccc(C(F)F)c2)nc2cc(Nc3nc(-c4cccnc4)cs3)ccc21 [Compound 090, [2-(3-Difluoromethyl-phenyl)-1-methyl-1H-benzoimidazol-5-yl]-(4-pyridin-3-yl-thiazol-2-yl)-amine] | 1 to 10 µM
Cn1c(-c2cccc(C(F)(F)F)c2)nc2cc(Nc3nc(-c4cccnc4)cs3)ccc21 [Compound 091, [1-Methyl-2-(3-trifluoromethyl-phenyl)-1H-benzoimidazol-5-yl]-(4-pyridin-3-yl-thiazol-2-yl)-amine] | 1 to 10 µM
Cc1cc2c(cc1Nc1nc(-c3cccnc3)cs1)nc(-c1ccc(C(F)F)cc1)n2C [Compound 093, [2-(4-Difluoromethyl-phenyl)-1,6-dimethyl-1H-benzoimidazol-5-yl]-(4-pyridin-3-yl-thiazol-2-yl)-amine] | ≤ 1 µM
Cc1cc2c(cc1Nc1nc(-c3ccncc3)cs1)nc(-c1cccc(N3CCN(C)CC3)c1)n2C [Compound 096, {1,6-Dimethyl-2-[3-(4-methyl-piperazin-1-yl)-phenyl]-1H-benzoimidazol-5-yl}-(4-pyridin-4-yl-thiazol-2-yl)-amine] | 1 to 10 µM
Cc1cc2[nH]c(-c3ccc(C(F)F)cc3)nc2cc1Nc1nc(-c2cccnc2)cs1 [Compound 097, [2-(4-Difluoromethyl-phenyl)-6-methyl-1H-benzoimidazol-5-yl]-(4-pyridin-3-yl-thiazol-2-yl)-amine] | ≤ 1 µM

The next lines start with the values.

IC50 | Compound
1 to 10 µM | Cc1cccc(-c2nc3cc(C)c(Nc4nc(-c5cncnc5)cs4)cc3[nH]2)c1 [Compound 066, (6-Methyl-2-m-tolyl-1H-benzoimidazol-5-yl)-(4-pyrimidin-5-yl-thiazol-2-yl)-amine]
1 to 10 µM | Cc1cc2nc(-c3ccc(C(F)(F)F)cc3)[nH]c2cc1Nc1nc(-c2cncnc2)cs1 [Compound 067, [6-Methyl-2-(4-trifluoromethyl-phenyl)-1H-benzoimidazol-5-yl]-(4-pyrimidin-5-yl-thiazol-2-yl)-amine]
≤ 1 µM | Cc1cc2nc(-c3cccc(C(F)F)c3)[nH]c2cc1Nc1nc(-c2ccc(C#N)cc2)cs1 [Compound 069, 4-{2-[2-(3-Difluoromethyl-phenyl)-6-methyl-3H-benzoimidazol-5-ylamino]-thiazol-4-yl}-benzonitrile]
≤ 1 µM | Cc1cc2nc(-c3ccc(C(F)(F)F)cc3)[nH]c2cc1Nc1nc(-c2ccc(C(N)=O)cc2)cs1 [Compound 072, 4-{2-[6-Methyl-2-(4-trifluoromethyl-phenyl)-3H-benzoimidazol-5-ylamino]-thiazol-4-yl}-benzamide]
≤ 1 µM | Cc1ccc(-c2nc3cc(Nc4nc(-c5ccncc5)cs4)c(C)cc3[nH]2)s1 [Compound 079, [6-Methyl-2-(5-methyl-thiophen-2-yl)-1H-benzoimidazol-5-yl]-(4-pyridin-4-yl-thiazol-2-yl)-amine]
1 to 10 µM | Cc1cc2[nH]c(-c3cncn3C)nc2cc1Nc1nc(-c2ccncc2)cs1 [Compound 080, [6-Methyl-2-(3-methyl-3H-imidazol-4-yl)-1H-benzoimidazol-5-yl]-(4-pyridin-4-yl-thiazol-2-yl)-amine]
≤ 1 µM | Cc1cc2c(cc1Nc1nc(-c3ccncc3)cs1)nc(-c1cccc(C(F)F)c1)n2C [Compound 081, [2-(3-Difluoromethyl-phenyl)-1,6-dimethyl-1H-benzoimidazol-5-yl]-(4-pyridin-4-yl-thiazol-2-yl)-amine]
≤ 1 µM | Cc1cc2c(cc1Nc1nc(-c3cccnc3)cs1)nc(-c1cccc(OC(F)(F)F)c1)n2C [Compound 086, [1,6-Dimethyl-2-(3-trifluoromethoxy-phenyl)-1H-benzoimidazol-5-yl]-(4-pyridin-3-yl-thiazol-2-yl)-amine]
≤ 1 µM | FC(F)c1cccc(-c2nc3cc(Nc4nc(-c5cccnc5)cs4)ccc3[nH]2)c1 [Compound 087, [2-(3-Difluoromethyl-phenyl)-1H-benzoimidazol-5-yl]-(4-pyridin-3-yl-thiazol-2-yl)-amine]
1 to 10 µM | Cn1c(-c2cccc(OC(F)(F)F)c2)nc2cc(Nc3nc(-c4cccnc4)cs3)ccc21 [Compound 092, [1-Methyl-2-(3-trifluoromethoxy-phenyl)-1H-benzoimidazol-5-yl]-(4-pyridin-3-yl-thiazol-2-yl)-amine]
≤ 1 µM | Cc1cc2c(cc1Nc1nc(-c3ccncc3)cs1)nc(-c1ccc(C(F)F)cc1)n2C [Compound 094, [2-(4-Difluoromethyl-phenyl)-1,6-dimethyl-1H-benzoimidazol-5-yl]-(4-pyridin-4-yl-thiazol-2-yl)-amine]
1 to 10 µM | Cc1cc2c(cc1Nc1nc(-c3cccnc3)cs1)nc(-c1cccc(N3CCN(C)CC3)c1)n2C [Compound 095, {1,6-Dimethyl-2-[3-(4-methyl-piperazin-1-yl)-phenyl]-1H-benzoimidazol-5-yl}-(4-pyridin-3-yl-thiazol-2-yl)-amine]
